According to patent publication US20250346584A1, “NOVEL KAPPA OPIOID LIGANDS” (The Scripps Research Institute, priority 2012, published 2025):

Target: kappa opioid receptor (OPRK1) (Homo sapiens (Human), UniProt P41145)
Experiment: OPRK1 antagonist assay (b-arrestin-2-TEV / b-lactamase reporter cell line, EC80 U-50488 challenge)
Format: cell-based
Details: read-out: IC50 nM (% inhib if other than 50%); antagonist mode vs EC80 U-50488; NA = not active at concentrations up to 10 μM

Chain of kappa opioid receptor (OPRK1) (P41145 whole entry): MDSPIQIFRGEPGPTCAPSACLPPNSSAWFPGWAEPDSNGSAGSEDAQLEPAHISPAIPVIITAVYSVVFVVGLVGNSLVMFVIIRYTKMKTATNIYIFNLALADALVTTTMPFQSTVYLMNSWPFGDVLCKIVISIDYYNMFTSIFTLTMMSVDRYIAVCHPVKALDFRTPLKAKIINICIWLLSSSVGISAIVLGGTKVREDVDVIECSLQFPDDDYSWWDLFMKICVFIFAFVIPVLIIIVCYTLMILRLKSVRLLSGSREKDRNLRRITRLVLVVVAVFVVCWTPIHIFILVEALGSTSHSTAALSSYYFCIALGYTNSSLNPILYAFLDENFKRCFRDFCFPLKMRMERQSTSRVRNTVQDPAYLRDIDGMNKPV

SMILES	IC50
CO[C@H]1CN(c2nc3ccc(F)cc3cc2-c2nc(C)no2)CC[C@H]1NC1CCCCC1 [compound 296]	10 nM
CCc1noc(-c2cc3cc(C)ccc3nc2N2CC[C@@H](NC3CCCCC3)[C@@H](OC)C2)n1 [compound 297]	2 nM
CO[C@H]1CN(c2ncc(C)cc2-c2nc(C)no2)CC[C@H]1NC1CCCCC1 [compound 299]	25 nM
CO[C@H]1CN(c2nc(C)c(C)cc2-c2nc(C)no2)CC[C@H]1NC1CCCCC1 [compound 300]	16 nM
Cc1ccc2nc(N3CCC(NC4CCCCC4)C(CO)C3)c(-c3nnc(C)o3)cc2c1 (centres unmarked) [compound 301]	38 nM
Cc1ccc2nc(N3CCC(NC4CCOCC4)CC3)c(C(=O)OC(C)C)cc2c1 [compound 302]	274 nM
COC1CN(c2nc3ccc(C)cc3cc2-c2nc(C3CC3)no2)CCC1NC1CCCCC1 (centres unmarked) [compound 303]	0.5 nM
Cc1ccc2nc(N3CCC(NC4CCCCC4)C(CO)C3)c(-c3nc(C4CC4)no3)cc2c1 (centres unmarked) [compound 304]	3.5 nM
Cc1ccc2nc(N3CCC(NC4CCOCC4)CC3)c(-c3nc(C4CC4)no3)cc2c1 [compound 305]	17 nM
COC1CN(c2nc3cc(C)c(C)cc3cc2-c2nc(C)no2)CCC1NC1CCCCC1 (centres unmarked) [compound 306]	107 nM
Cc1noc(-c2cc3cc(C)c(C)cc3nc2N2CCC(NC3CCCCC3)C(CO)C2)n1 (centres unmarked) [compound 307]	41 nM
COC1CN(c2nc3ccccc3cc2-c2nc(C)no2)CCC1NC1CCCC1 (centres unmarked) [compound 308]	2.5 nM
COC1CN(c2nc3ccc(C)cc3cc2-c2nc(C)no2)CCC1NC1CCCC1 (centres unmarked) [compound 309]	0.5 nM
CCc1noc(-c2cc3cc(C)ccc3nc2N2CCC(NC3CCCC3)C(OC)C2)n1 (centres unmarked) [compound 310]	4 nM
COC1CN(c2nc3ccccc3cc2-c2nc(C)no2)CCC1NC1CCCCCC1 (centres unmarked) [compound 311]	1 nM
COC1CN(c2nc3ccc(C)cc3cc2-c2nc(C)no2)CCC1NC1CCCCCC1 (centres unmarked) [compound 312]	0.7 nM
CCc1noc(-c2cc3cc(C)ccc3nc2N2CCC(NC3CCCCCC3)C(OC)C2)n1 (centres unmarked) [compound 313]	1.5 nM
COC1CN(c2ncc(C)cc2-c2nc(C)no2)CCC1NC1CCCC1 (centres unmarked) [compound 316]	23 nM
COC1CN(c2nc(C)c(C)cc2-c2nc(C)no2)CCC1NC1CCCC1 (centres unmarked) [compound 317]	27 nM
COC1CN(c2ncc(C)cc2-c2nc(C)no2)CCC1NC1CCCCCC1 (centres unmarked) [compound 318]	19 nM
COC1CN(c2nc(C)c(C)cc2-c2nc(C)no2)CCC1NC1CCCCCC1 (centres unmarked) [compound 319]	21 nM

SMILES	IC50
COC1CN(c2ncc(C)cc2-c2nc(C)no2)CCC1NC1CCOCC1 (centres unmarked) [compound 320]	170 nM
COC1CN(c2nc(C)c(C)cc2-c2nc(C)no2)CCC1NC1CCOCC1 (centres unmarked) [compound 321]	105 nM
COC1CN(c2nc3ccc(C)cc3cc2C(=O)N2CCCC2)CCC1NC1CCCCC1 (centres unmarked) [compound 323]	1340 nM
COC1CN(c2nc3ccccc3cc2-c2nc(C)no2)CCC1NC1CCOCC1 (centres unmarked) [compound 325]	8 nM
COC1CN(c2nc3ccc(C)cc3cc2-c2nc(C)no2)CCC1NC1CCOCC1 (centres unmarked) [compound 326]	1.9 nM
CCc1noc(-c2cc3cc(C)ccc3nc2N2CCC(NC3CCOCC3)C(OC)C2)n1 (centres unmarked) [compound 327]	5.6 nM
CO[C@@H]1CN(c2nc3ccc(F)cc3cc2-c2nc(C)no2)CC[C@@H]1NC1CCCCC1 [compound 331]	27 nM
Cc1ccc2nc(N3CCC(NC4CCOCC4)CC3)c(-c3noc(C)n3)cc2c1 [compound 332]	19 nM
CCOC(=O)c1noc(-c2cc3cc(C)ccc3nc2N2CCC(NC3CCCCC3O)CC2)n1 (centres unmarked) [compound 336]	4360 nM
CO[C@H]1CN(c2nc3ccc(C)cc3cc2-c2noc(C)n2)CC[C@H]1NC1CCCCC1 [compound 338]	0.99 nM
CO[C@H]1CN(c2nc3ccc(C)cc3cc2C(=O)OC(C)C)CC[C@H]1NC1CCCCC1 [compound 343]	10.6 nM
Cc1ccc2nc(N3CCC(NC4CCCCC4C)CC3)c(-c3nc(C)no3)cc2c1 (centres unmarked) [compound 348]	1.3 nM
Cc1ccc2nc(N3CCC(NC(C)C4CCCCC4)CC3)c(-c3nc(C)no3)cc2c1 (centres unmarked) [compound 349]	21 nM
Cc1ccc2nc(N3CCC(NC4CCC(C)CC4)CC3)c(-c3nc(C)no3)cc2c1 (centres unmarked) [compound 350]	0.97 nM
CCCC(C)NC1CCN(c2nc3ccc(C)cc3cc2-c2nc(C)no2)CC1 (centres unmarked) [compound 351]	3 nM
Cc1ccc2nc(N3CCC(NCC4CCCCC4O)CC3)c(-c3nc(C)no3)cc2c1 (centres unmarked) [compound 352]	3.1 nM
CCOC(=O)c1nc2cc(C)ccc2nc1N1CCC(NC2CCCCC2)C(OC)C1 (centres unmarked) [compound 353]	23 nM
Cc1ccc2nc(N3CCC(NCC(C)C)CC3)c(-c3nc(C4CC4)no3)cc2c1 [compound 354]	4.2 nM
CO[C@H]1CN(c2ncc(C)cc2C(=O)OC(C)C)CC[C@H]1NC1CCCCC1 [compound 356]	12.5 nM
Cc1cnc(N2CCC(C)(NC3CCCCC3)CC2)c(-c2nc(C)no2)c1 [compound 357]	22.3 nM
Cc1ccc2nc(N3CCC(NCC(C)O)CC3)c(-c3nc(C)no3)cc2c1 (centres unmarked) [compound 360]	8 nM

SMILES	IC50
CO[C@@H]1CN(c2ncc(C)cc2C(=O)OC(C)C)CC[C@@H]1NC1CCCCC1 [compound 361]	1440 nM
CCOC(=O)c1nc2cc(C)ccc2nc1N1CCC(NC2CCCCC2)C(CO)C1 (centres unmarked) [compound 373]	63 nM
COC1CN(c2nc3ccccc3cc2-c2nc(C)no2)CCC1NCC(C)C (centres unmarked) [compound 374]	45 nM
COC1CN(c2nc3ccc(C)cc3cc2-c2nc(C)no2)CCC1NCC(C)C (centres unmarked) [compound 375]	12 nM
COC1CN(c2nc3ccc(C)cc3cc2-c2nc(C3CC3)no2)CCC1NCC(C)C (centres unmarked) [compound 376]	14 nM
COC1CN(c2nc3ccc(C)cc3cc2-c2noc(C)n2)CCC1NCC(C)C (centres unmarked) [compound 377]	69 nM
COC1CN(c2nc(C)c(C)cc2-c2nc(C)no2)CCC1NCC(C)C (centres unmarked) [compound 378]	256 nM
CO[C@@H]1CN(c2nc3ccc(C)cc3cc2-c2noc(C)n2)CC[C@@H]1NC1CCCCC1 [compound 382]	83 nM
COC1CN(c2ncc(C)cc2-c2nccc(C)n2)CCC1NC1CCCCC1 (centres unmarked) [compound 384]	16700 nM
COC1CN(c2nc(C)c(C)nc2-c2nc(C)no2)CCC1NC1CCCCC1 (centres unmarked) [compound 390]	1920 nM
COC1CN(c2ncc(C)cc2-c2cn(C)nn2)CCC1NC1CCCCC1 (centres unmarked) [compound 392]	2960 nM
Cc1ccc2nc(N3CCC(NCC(C)(C)O)CC3)c(-c3nc(C)no3)cc2c1 [compound 402]	16 nM
CO[C@@H]1CN(c2nnc(C)cc2C(=O)OC(C)C)CC[C@@H]1NC1CCCCC1 [compound 404]	63 nM
Cc1cnc(-c2cc(C)cnc2N2CCC(NC3CCCCC3)CC2)nc1 [compound 406]	7680 nM
COC1CN(c2nnc(C)cc2C(=O)OC(C)C)CCC1NCC(C)C (centres unmarked) [compound 408]	57 nM
CO[C@H]1CN(c2nnc(C)cc2C(=O)OC(C)C)CC[C@H]1NC1CCCCC1 [compound 411]	10 nM
Cc1ccc2nc(N3CCC(NC[C@@H](C)O)CC3)c(-c3nc(C)no3)cc2c1 [compound 421]	48 nM
Cc1ccc2nc(N3CCC(NC[C@H](C)O)CC3)c(-c3nc(C)no3)cc2c1 [compound 422]	106 nM
COC1CN(c2nc(CO)ccc2-c2nc(C)no2)CCC1NC1CCCCC1 (centres unmarked) [compound 425]	60 nM
Cc1ccc2nc(N3CCC(NCC4CC4)CC3)c(-c3noc(C)n3)cc2c1 [compound 434]	43 nM
Cc1ccc2nc(N3CCC(NC4CCC(F)(F)CC4)CC3)c(-c3nc(C)no3)cc2c1 [compound 435]	6 nM

SMILES	IC50
Cc1ccc2nc(N3CCC(NC4CCC(F)(F)CC4)CC3)c(-c3noc(C)n3)cc2c1 [compound 436]	26 nM
Cc1ccc2nc(N3CCC(NC4CCCC[C@@H]4O)CC3)c(-c3noc(C)n3)cc2c1 (some centres unmarked) [compound 437]	17 nM
Cc1ccc2nc(N3CCC(NC4CCC[C@@H]4O)CC3)c(-c3noc(C)n3)cc2c1 (some centres unmarked) [compound 440]	70 nM
Cc1ccc2nc(N3CCC(NC4CCCCC4O)CC3)c(-c3noc(C)n3)cc2c1 (centres unmarked) [compound 450]	11 nM
CCCC(C)NC1CCN(c2nc3ccc(C)cc3cc2-c2noc(C)n2)CC1 (centres unmarked) [compound 453]	85 nM
Cc1ccc2nc(N3CCC(NC4CCCCC4)C3)c(-c3nc(C)no3)cc2c1 (centres unmarked) [compound 461]	52 nM
COC1CN(c2nc3ccccc3cc2-c2cnc(C)cn2)CCC1NC1CCCCC1 (centres unmarked) [compound 465]	18 nM
Cc1cnc(-c2cc3ccccc3nc2N2CCC(NC3CCCCC3)CC2)cn1 [compound 466]	24 nM
Cc1nc(-c2cc3cc(F)ccc3nc2N2CCC(NC3CCCCC3)CC2)no1 [compound 467]	431 nM
Cc1nc(-c2cc3cc(F)ccc3nc2N2CCC(NC3CCCC3)CC2)no1 [compound 468]	175 nM
Cc1nc(-c2cc3cc(F)ccc3nc2N2CCC(NC3CCOCC3)CC2)no1 [compound 469]	440 nM
CO[C@H]1CN(c2nc3ccccc3cc2-c2cnc(C)cn2)CC[C@H]1NC1CCCCC1 [compound 470]	40 nM
CO[C@@H]1CN(c2nc3ccccc3cc2-c2cnc(C)cn2)CC[C@@H]1NC1CCCCC1 [compound 471]	170 nM
CO[C@H]1CN(c2ncc(C)cc2-c2cnc(C)cn2)CC[C@H]1NC1CCCCC1 [compound 472]	105 nM
Cc1cnc(N2CCC(NC3CCOCC3)CC2)c(-c2cnc(C)cn2)c1 [compound 473]	3210 nM
Cc1nc(-c2cc3cc(F)ccc3nc2N2CCC(N[C@H]3CCC[C@@H]3O)CC2)no1 [compound 474]	1900 nM
Cc1nc(-c2cc3cc(F)ccc3nc2N2CCC(N[C@@H]3CCCC[C@H]3O)CC2)no1 [compound 475]	101 nM
Cc1noc(-c2cc3cc(F)ccc3nc2N2CCC(NC3CCOCC3)CC2)n1 [compound 476]	430 nM
Cc1noc(-c2cc3c(F)cccc3nc2N2CCC(NC3CCOCC3)CC2)n1 [compound 477]	42 nM
CC(=O)c1cc2cc(C)ccc2nc1N1CCC(NC2CCOCC2)CC1 [compound 478]	900 nM
